Reference: US12564193B2, “Isoxazoline-substituted benzamide derivative, and preparation method therefor and use thereof” (SHANDONG UNITED PESTICIDE INDUSTRY CO., LTD., priority 2020, dated 2026)
Read-outs that look alike come from different tables or passages of the source.

Assays:
Type in all cases: in vivo
[1] = tested on: Frankliniella occidentalis; assay: Insecticidal activity, spray on pre-infested radish plants: Frankliniella occidentalis; conditions: for Fatality rate on Frankliniella occidentalis (%): Table 3; for pest or weed control at 1 ppm / pest or weed control at 10 ppm / pest or weed control at 25 ppm: Frankliniella occidentalis, 144 h, read-out: fatality rate on Frankliniella occidentalis
Method: (§1) For determination of insecticidal activity, the test method was as follows: a test solution with a desired concentration was prepared by dissolving a test compound sample in a suitable solvent (the kind of solvent was such as acetone, methanol, DMSO, etc., and was selected according to its dissolving ability for the sample). The test cell was composed of a small open container with 12-15 day old radish plants inside. The plants were pre-infested by placing 30-40 pests located on one leaf cut from the cultivated plant on one leaf of the test plant (leaf cutting method). As the leaves dehydrated, the pests moved on the test plants. After the pre-infesting, the soil of the test cells was covered with a layer of sand.
The test method was as follows: the test was repeated for three times, and after spraying the formulated test compound, each test unit was allowed to dry for 1 hour, and then a black mesh cover was placed at the top. The test units were kept in a growth chamber at 25° C. and 70% relative humidity for 6 days. The mortality (fatality rate) of the insects was then visually assessed for each test unit, and the fatality rate was calculated as follows:
[formula] (1) Test Results for the Control of Frankliniella occidentalis by Exemplary Example Compounds

[2] = tested on: Plutella xylostella; assay: Insecticidal activity, spray on pre-infested radish plants: Plutella xylostella; conditions: for Fatality rate on Plutella xylostella (%): Table 3; for pest or weed control at 0.1 ppm / pest or weed control at 1 ppm / pest or weed control at 10 ppm: Plutella xylostella, 144 h, read-out: fatality rate on Plutella xylostella
Method: as §1
(§2) The test method was as follows: the test was repeated for three times, and after spraying the formulated test compound, each test unit was allowed to dry for 1 hour, and then a black mesh cover was placed at the top. The test units were kept in a growth chamber at 25° C. and 70% relative humidity for 6 days. The mortality (fatality rate) of the insects was then visually assessed for each test unit, and the fatality rate was calculated as follows: […]

[3] = tested on: Mythimna separata; assay: Insecticidal activity, spray on pre-infested radish plants: Mythimna separata; conditions: for Fatality rate on Mythimna separata (%): Table 3; for pest or weed control at 0.1 ppm / pest or weed control at 1 ppm / pest or weed control at 10 ppm: Mythimna separata, 144 h, read-out: fatality rate on Mythimna separata
Method: as §1, §2

[4] = tested on: Chilo suppressalis; assay: Insecticidal activity, spray on pre-infested radish plants: Chilo suppressalis; conditions: for Fatality rate on Chilo suppressalis (%): Table 3; for pest or weed control at 0.1 ppm / pest or weed control at 1 ppm / pest or weed control at 10 ppm: Chilo suppressalis, 144 h, read-out: fatality rate on Chilo suppressalis
Method: as §1, §2

[5] = tested on: Pieris rapae; assay: Insecticidal activity, spray on pre-infested radish plants: Pieris rapae; conditions: 144 h, read-out: fatality rate on Pieris rapae
Method: as §1, §2

[6] = tested on: Spodoptera litura; assay: Insecticidal activity, spray on pre-infested radish plants: Spodoptera litura; conditions: 144 h, read-out: fatality rate on Spodoptera litura
Method: as §1, §2

[7] = tested on: Cnaphalocrocis medinalis; assay: Insecticidal activity, spray on pre-infested radish plants: Cnaphalocrocis medinalis; conditions: 144 h, read-out: fatality rate on Cnaphalocrocis medinalis
Method: as §1, §2

[8] = tested on: Tetranychus cinnabarinus; assay: Acaricidal activity, slide immersion of female adult mites: Tetranychus cinnabarinus; conditions: read-out: fatality rate on Tetranychus cinnabarinus
Method: The test method was as follows: a test solution with a desired concentration was prepared by dissolving a test compound sample in a suitable solvent (the kind of solvent was such as acetone, methanol, DMSO, etc., and was selected according to its dissolving ability for the sample). A double-sided adhesive tape was cut into 2-3 cm long pieces, the pieces were attached to one end of a microscope slide, paper pieces on the adhesive tape were removed using tweezers, female adult mites which were consistent in size, bright in body color and lively in action were selected using a zero-size brush pen, the backs of the female adult mites were adhered to the double-sided adhesive tape (note: the adhesion should not cover mite feet, mite whiskers and mouthparts), with 4 rows of mites adhered to each piece and 10 heads of the mites adhered to each row.
One end of the glass slide with the mites was immersed into a drug liquid, with slightly shaking for 5 seconds, and then the slide was taken out. The excess drug liquid around the mite body and is surroundings is quickly sucked off using absorbent paper. The slide was placed in the biochemical incubator described above, and the results were checked by using binoculars after 24 hours. The mites were slightly touched by using a brush pen, the mites with immobility in feet were considered to be dead, and the fatality rate was calculated. The fatality rate was calculated as follows: […]

Cc1cc(C2=NOC(c3cc(Cl)cc(Cl)c3)(C(F)(F)F)C2)ccc1C(=O)NCc1ccc(Cl)nc1 (stereo not drawn) [CK1, reference compound]
Fatality rate on Frankliniella occidentalis (%) ([1]; 1 ppm): 0% | Fatality rate on Frankliniella occidentalis (%) ([1]; 10 ppm): 40% | Fatality rate on Frankliniella occidentalis (%) ([1]; 25 ppm): 80% | Fatality rate on Plutella xylostella (%) ([2]; 0.1 ppm): 15% | Fatality rate on Plutella xylostella (%) ([2]; 1 ppm): 80% | Fatality rate on Plutella xylostella (%) ([2]; 10 ppm): 100% | Fatality rate on Mythimna separata (%) ([3]; 0.1 ppm): 10% | Fatality rate on Mythimna separata (%) ([3]; 1 ppm): 80% | Fatality rate on Mythimna separata (%) ([3]; 10 ppm): 100% | Fatality rate on Chilo suppressalis (%) ([4]; 0.1 ppm): 0% | Fatality rate on Chilo suppressalis (%) ([4]; 1 ppm): 50% | Fatality rate on Chilo suppressalis (%) ([4]; 10 ppm): 100%

Cc1cc(C2=NOC(c3cc(Cl)c(F)c(Cl)c3)(C(F)(F)F)C2)ccc1C(=O)NCc1ccc(Cl)nc1 (stereo not drawn) [Compound 1, N-((6-chloropyridin-3-yl)methyl)-4-(5-(3,5-dichloro-4-fluorophenyl)-5-(trifluoromethyl)-4,5-dihydroisoxazol-3-yl)-2-methylbenzamide]
Fatality rate on Frankliniella occidentalis (%) ([1]; 1 ppm): 95% | Fatality rate on Frankliniella occidentalis (%) ([1]; 10 ppm): 100% | Fatality rate on Frankliniella occidentalis (%) ([1]; 25 ppm): 100% | pest or weed control at 1 ppm [1]: > 80% | pest or weed control at 10 ppm [1]: > 80% | pest or weed control at 25 ppm [1]: > 80% | Fatality rate on Plutella xylostella (%) ([2]; 0.1 ppm): 100% | Fatality rate on Plutella xylostella (%) ([2]; 1 ppm): 100% | Fatality rate on Plutella xylostella (%) ([2]; 10 ppm): 100% | pest or weed control at 0.1 ppm [2]: > 80% | pest or weed control at 1 ppm [2]: > 80% | pest or weed control at 10 ppm [2]: > 80% | pest or weed control at 0.1 ppm [5]: > 80% | pest or weed control at 1 ppm [5]: > 80% | pest or weed control at 10 ppm [5]: > 80% | Fatality rate on Mythimna separata (%) ([3]; 0.1 ppm): 95% | Fatality rate on Mythimna separata (%) ([3]; 1 ppm): 100% | Fatality rate on Mythimna separata (%) ([3]; 10 ppm): 100% | pest or weed control at 0.1 ppm [3]: > 80% | pest or weed control at 1 ppm [3]: > 80% | pest or weed control at 10 ppm [3]: > 80% | pest or weed control at 0.1 ppm [6]: > 80% | pest or weed control at 1 ppm [6]: > 80% | pest or weed control at 10 ppm [6]: > 80% | Fatality rate on Chilo suppressalis (%) ([4]; 0.1 ppm): 90% | Fatality rate on Chilo suppressalis (%) ([4]; 1 ppm): 100% | Fatality rate on Chilo suppressalis (%) ([4]; 10 ppm): 100% | pest or weed control at 0.1 ppm [4]: > 80% | pest or weed control at 1 ppm [4]: > 80% | pest or weed control at 10 ppm [4]: > 80% | pest or weed control at 0.1 ppm [7]: > 80% | pest or weed control at 1 ppm [7]: > 80% | pest or weed control at 10 ppm [7]: > 80% | pest or weed control at 1 ppm ([8]; 24 h): > 80% | pest or weed control at 10 ppm ([8]; 24 h): > 80% | pest or weed control at 25 ppm ([8]; 24 h): > 80%

Cc1cc(C2=NOC(c3cc(F)c(F)c(F)c3)(C(F)(F)F)C2)ccc1C(=O)NCc1ccc(Cl)nc1 (stereo not drawn) [Compound 2, N-((6-chloropyridin-3-yl)methyl)-2-methyl-4-(5-(trifluoromethyl)-5-(3,4,5-trifluorophenyl)-4,5-dihydroisoxazol-3-yl)benzamide]
Fatality rate on Frankliniella occidentalis (%) ([1]; 1 ppm): 90% | Fatality rate on Frankliniella occidentalis (%) ([1]; 10 ppm): 100% | Fatality rate on Frankliniella occidentalis (%) ([1]; 25 ppm): 100% | pest or weed control at 1 ppm ([1]; dose 1 ppm, spray, 6 days): > 80% | pest or weed control at 10 ppm ([1]; dose 10 ppm, spray, 6 days): > 80% | pest or weed control at 25 ppm ([1]; dose 25 ppm, spray, 6 days): > 80% | Fatality rate on Plutella xylostella (%) ([2]; 0.1 ppm): 85% | Fatality rate on Plutella xylostella (%) ([2]; 1 ppm): 100% | Fatality rate on Plutella xylostella (%) ([2]; 10 ppm): 100% | pest or weed control at 0.1 ppm ([2]; dose 0.1 ppm, spray, 6 days): > 80% | pest or weed control at 1 ppm ([2]; dose 1 ppm, spray, 6 days): > 80% | pest or weed control at 10 ppm ([2]; dose 10 ppm, spray, 6 days): > 80% | pest or weed control at 0.1 ppm ([5]; dose 0.1 ppm, spray, 6 days): > 80% | pest or weed control at 1 ppm ([5]; dose 1 ppm, spray, 6 days): > 80% | pest or weed control at 10 ppm ([5]; dose 10 ppm, spray, 6 days): > 80% | Fatality rate on Mythimna separata (%) ([3]; 0.1 ppm): 85% | Fatality rate on Mythimna separata (%) ([3]; 1 ppm): 100% | Fatality rate on Mythimna separata (%) ([3]; 10 ppm): 100% | pest or weed control at 0.1 ppm ([3]; dose 0.1 ppm, spray, 6 days): > 80% | pest or weed control at 1 ppm ([3]; dose 1 ppm, spray, 6 days): > 80% | pest or weed control at 10 ppm ([3]; dose 10 ppm, spray, 6 days): > 80% | pest or weed control at 0.1 ppm ([6]; dose 0.1 ppm, spray, 6 days): > 80% | pest or weed control at 1 ppm ([6]; dose 1 ppm, spray, 6 days): > 80% | pest or weed control at 10 ppm ([6]; dose 10 ppm, spray, 6 days): > 80% | Fatality rate on Chilo suppressalis (%) ([4]; 0.1 ppm): 80% | Fatality rate on Chilo suppressalis (%) ([4]; 1 ppm): 100% | Fatality rate on Chilo suppressalis (%) ([4]; 10 ppm): 100% | pest or weed control at 0.1 ppm ([4]; dose 0.1 ppm, spray, 6 days): > 80% | pest or weed control at 1 ppm ([4]; dose 1 ppm, spray, 6 days): > 80% | pest or weed control at 10 ppm ([4]; dose 10 ppm, spray, 6 days): > 80% | pest or weed control at 0.1 ppm ([7]; dose 0.1 ppm, spray, 6 days): > 80% | pest or weed control at 1 ppm ([7]; dose 1 ppm, spray, 6 days): > 80% | pest or weed control at 10 ppm ([7]; dose 10 ppm, spray, 6 days): > 80% | pest or weed control at 1 ppm ([8]; dose 1 ppm, immersion 5 seconds, checked after 24 hours): > 80% | pest or weed control at 10 ppm ([8]; dose 10 ppm, immersion 5 seconds, checked after 24 hours): > 80% | pest or weed control at 25 ppm ([8]; dose 25 ppm, immersion 5 seconds, checked after 24 hours): > 80%
